Source: article PMC3251615, “Effects of NK-4 in a Transgenic Mouse Model of Alzheimer's Disease” (PLoS ONE, 2012)

Biological target: T1, Beta-amyloid (Aβ) peptide Aβ1–40 (Homo sapiens, UniProt P05067)
T1 construct: gene APP; Aβ1–40 (Aβ1–42 and Aβ25–35 also measured)
Assay: Thioflavin T fibril formation assay on the isolated peptide, […] hr at […] °C; electron microscopy (Aβ[…] and Aβ[…])
Assay type: biochemical

T1 sequence (P05067 672-711 limits assumed): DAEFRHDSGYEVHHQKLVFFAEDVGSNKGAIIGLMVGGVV

Compound CCN1C=CC(=CC=C(C=Cc2cc[n+](CC)c3ccccc23)c2cc[n+](CC)c3ccccc23)c2ccccc21 [NK-4, 4,4′-[3-{2-(1-ethyl-4(1H)-quinolylidene)ethylidene}propenylene] bis(1-ethylquinolinium iodide)] has an IC50 of roughly 10 µM.
